Test results: patent publication US20060084789A1, “Immunotherapeutic and immunoprphylactic reagents” (priority 2002, published 2006)

Tests used:
Format in all cases: cell-based, human
[1] = tested on: IFN-γ production by RGP-specific TCL; experiment: IFN-γ detection in culture supernatants by sandwich ELISA; details: supernatant at 48 h, UD undetectable, limit of detection 2 pg/ml
Procedure: (§1) Cytokine Detection in Culture Supernatants
(§2) Supernatants of triplicate cultures were harvested and pooled from T cell proliferation assay cultures at 48 hours for the detection of IL-5 and IFN-γ production by sandwich ELISA. Briefly white Maxisorp (NUNC, Roskilde, Denmark) ELISA plates were coated with capture mAb (anti-IL-5, Pharmingen, San Diego, Calif., USA; anti-IFN-γ, Endogen, Woburn, Mass. USA) overnight at 4° C. Plates were then washed and wells blocked with 1% Bovine Serum Albumin/PBS for 1 hour at room temperature. Following washing, test samples (neat) and serial dilutions of recombinant human IL-5 (Pharmingen, USA) or IFN-γ (Endogen, USA) (for the construction of standard curves) were added and incubated overnight at 4° C. Following washing, plates were incubated with biotinylated detecting mAb (anti-IL-5, Pharmingen, USA; […], Endogen, USA) for 1 hour at room temperature. Plates were then washed and incubated with streptavidin-peroxidase (Amersham, Piscataway, N.J., USA) for 30 minutes at room temperature. Following washing, a chemiluminescent substrate (Du Pont, Wilmington, Del., USA) was added to each well and plates read in a Lumicount microplate Glow Luminometer (Packard Instrument Company, Meriden, Conn., USA), 0.5 seconds/well, automatic sensitivity setting. Standard curve construction and determination of test sample cytokine levels were performed using Packard I-smart software. The limits of detection for IL-5 and IFN-γ were 10 pg/ml and 2 pg/ml respectively.

RGP-specific TCL = experiment: TCL proliferation assay (3H-thymidine incorporation, stimulation index); details: peptides 10 μg/ml
Procedure: Generation of Short-Term RGP-Specific TCL
PBMC were cultured in 24-well plates (Costar, Mass., USA) at 2.5×10^6 cells/well with RGP extract at a concentration of 25 or 50 μg/ml in RPMI 1640 medium (Gibco BRL, NY, USA) supplemented with 2 mM GlutaMAX I (Gibco BRL), 0.05 mg/ml gentamicin (David Bull Laboratories, Mulgrave, Victoria, Australia) and 5% heat-inactivated hunan AB^+ serum (Sigma, Mo., USA) for 7 days at 37° C. in a 5% CO2 humidified incubator. At day 7, cells were washed once and restimulated in 24-well plates at 5×10^5 cells/well width 25 or 50 μg/ml of RGP extract in the presence of 5×10^5 cells/well irradiated (3000 rads) autologous PBMC as a source of antigen presenting cells (APC). At day 2 following restimulation, 10 U/ml of Lymphocult T-LF (LC; Biotest, Germany) was added as a source of IL-2 and at day 4, 1 ml of culture medium was removed and replaced with fresh medium and 10 U/ml of LC. […] In all experiments T cells were rested for 6 to 7 days after the last addition of antigen and APC before testing.
T cells (5×10^4/well) were cultured in 96-well U bottom plates with either RGP extract at concentrations ranging from 25 to 200 μg/ml, purified Lol p 1 (0.12 to 2 μg/ml) or Lol p 5 (0.1 to 10 μg/ml), or Lol p 1 or Lol p 5 peptides (10 μg/ml), or medium alone (to determine background levels of proliferation), in the presence of washed autologous irradiated (3000 rads) PBMC (5×10^4/well). […] Cultures were incubated for 3 days, pulsed for the last 16 hours with ^3H-thymidine (1 μCi/well) and harvested onto glass fibre filters. ^3H-thymidine incorporation was measured by liquid scintillation spectroscopy and the mean counts per minute (cpm) for triplicate cultures was determined. Responses were considered positive if the stimulation index (SI, cpm of antigen-stimulated T cells divided by cpm of unstimulated T cells) was ≧2.5. Where several concentrations of allergen were tested (i.e., RGP, Lol p 1 and Lol p 5), values corresponding to the highest proliferation are shown.

[2] = tested on: IL-5 production by RGP-specific TCL; experiment: IL-5 detection in culture supernatants by sandwich ELISA; details: supernatant at 48 h, UD undetectable, limit of detection 10 pg/ml
Procedure: as §1, §2

[3] = Subject 2 TCL, Lol p 5 peptides
[4] = Subject 2 TCL, Lol p 5 series (Table 4), RGP and Lol p 5 maximal response
[5] = Subject 11 TCL, Lol p 5 series (Table 4), RGP and Lol p 5 maximal response
[6] = Subject 13 TCL, Lol p 5 series (Table 4), RGP and Lol p 5 maximal response
[7] = Subject 38 TCL, Lol p 5 peptides
[8] = Subject 38 TCL, Lol p 5 series (Table 4), RGP and Lol p 5 maximal response, * SDS-PAGE purified Lol p 5
[9] = Subject 15 TCL, Lol p 1 peptides
[10] = Subject 19 TCL, Lol p 1 peptides
[11] = Subject 2 TCL, Lol p 1 series (Table 3), RGP and Lol p 1 maximal response
[12] = Subject 15 TCL, Lol p 1 series (Table 3), RGP and Lol p 1 maximal response
[13] = Subject 19 TCL, Lol p 1 series (Table 3), RGP and Lol p 1 maximal response
[14] = Subject 4 TCL, Lol p 1 series (Table 3), RGP and Lol p 1 maximal response
[15] = Subject 11 TCL, Lol p 1 series (Table 3), RGP and Lol p 1 maximal response
[16] = Subject 14 TCL, Lol p 1 series (Table 3), RGP and Lol p 1 maximal response

AALTKAITAMTQAQKAGKPA (Lolium perenne) [Lol p 5 peptide 226-245]
IFN-γ, proliferation inducing peptides [1, 3]: 292.0 pg/mL | Proliferative response, stimulation index (RGP-specific TCL; [4]): 3.3 | Proliferative response, stimulation index (RGP-specific TCL; [5]): 3.5 | Proliferative response, stimulation index (RGP-specific TCL; [6]): 2.0 | Proliferative response, stimulation index (RGP-specific TCL; Subject 27 TCL, Lol p 5 series (Table 4), RGP and Lol p 5 maximal response, † affinity purified Lol p 5): 7.1

ADKFKIFEAAFSESSKGLLA (Lolium perenne) [Lol p 5 peptide 55-74]
IL-5, proliferation inducing peptides [2, 7]: 220.7 pg/mL | IFN-γ, proliferation inducing peptides [1, 7]: 54.2 pg/mL | Proliferative response, stimulation index (RGP-specific TCL; Subject 36 TCL, Lol p 5 series (Table 4), RGP and Lol p 5 maximal response): 3.3 | Proliferative response, stimulation index (RGP-specific TCL; [8]): 3.3

DVNAGFKAAVAAAANAPPAD (Lolium perenne) [Lol p 5 peptide 37-56]
IL-5, proliferation inducing peptides [2, 3]: 692.8 pg/mL | IL-5, proliferation inducing peptides [2, 7]: 275.1 pg/mL | IFN-γ, proliferation inducing peptides [1, 3]: 7.0 pg/mL | IFN-γ, proliferation inducing peptides [1, 7]: 85.0 pg/mL | Proliferative response, stimulation index (RGP-specific TCL; [4]): 4.3 | Proliferative response, stimulation index (RGP-specific TCL; Subject 6 TCL, Lol p 5 series (Table 4), RGP and Lol p 5 maximal response): 7.3 | Proliferative response, stimulation index (RGP-specific TCL; [5]): 4.5 | Proliferative response, stimulation index (RGP-specific TCL; [6]): 0.9 | Proliferative response, stimulation index (RGP-specific TCL; Subject 20 TCL, Lol p 5 series (Table 4), RGP and Lol p 5 maximal response): 4.9 | Proliferative response, stimulation index (RGP-specific TCL; Subject 29 TCL, Lol p 5 series (Table 4), RGP and Lol p 5 maximal response): 2.8 | Proliferative response, stimulation index (RGP-specific TCL; Subject 35 TCL, Lol p 5 series (Table 4), RGP and Lol p 5 maximal response): 4.1 | Proliferative response, stimulation index (RGP-specific TCL; [8]): 4.0

GHAFGSMAKKGEEQNVRSAG (Lolium perenne) [Lol p 1 peptide 109-128]
IL-5, proliferation inducing peptides [2, 9]: 160.7 pg/mL | IFN-γ, proliferation inducing peptides ([1]; Subject 3 TCL, Lol p 1 peptides): 32.1 pg/mL | IFN-γ, proliferation inducing peptides [1, 9]: 143.3 pg/mL | IFN-γ, proliferation inducing peptides ([1]; Subject 16 TCL, Lol p 1 peptides): 13.8 pg/mL | IFN-γ, proliferation inducing peptides [1, 10]: 8.0 pg/mL | Proliferative response, stimulation index (RGP-specific TCL; [11]): 12.9 | Proliferative response, stimulation index (RGP-specific TCL; Subject 3 TCL, Lol p 1 series (Table 3), RGP and Lol p 1 maximal response): 2.8 | Proliferative response, stimulation index (RGP-specific TCL; [12]): 7.1 | Proliferative response, stimulation index (RGP-specific TCL; Subject 16 TCL, Lol p 1 series (Table 3), RGP and Lol p 1 maximal response): 3.0 | Proliferative response, stimulation index (RGP-specific TCL; Subject 17 TCL, Lol p 1 series (Table 3), RGP and Lol p 1 maximal response): 2.7 | Proliferative response, stimulation index (RGP-specific TCL; [13]): 12.0

IAPYHFDLSGHAFGSMAKKG (Lolium perenne) [Lol p 1 peptide 100-119]
IL-5, proliferation inducing peptides [2, 9]: 275.6 pg/mL | IFN-γ, proliferation inducing peptides [1, 9]: 167.1 pg/mL | Proliferative response, stimulation index (RGP-specific TCL; [11]): 9.4 | Proliferative response, stimulation index (RGP-specific TCL; [14]): 6.8 | Proliferative response, stimulation index (RGP-specific TCL; [15]): 7.9 | Proliferative response, stimulation index (RGP-specific TCL; [12]): 9.2 | Proliferative response, stimulation index (RGP-specific TCL; [13]): 3.7

KESWGAVWRIDTPDKLTGPF (Lolium perenne) [Lol p 1 peptide 190-209]
IL-5, proliferation inducing peptides [2, 9]: 15.3 pg/mL | IL-5, proliferation inducing peptides [2, 10]: 14.7 pg/mL | IFN-γ, proliferation inducing peptides ([1]; Subject 10 TCL, Lol p 1 peptides): 9.0 pg/mL | IFN-γ, proliferation inducing peptides [1, 9]: 63.5 pg/mL | IFN-γ, proliferation inducing peptides ([1]; Subject 23 TCL, Lol p 1 peptides): 8.3 pg/mL | Proliferative response, stimulation index (RGP-specific TCL; [14]): 6.2 | Proliferative response, stimulation index (RGP-specific TCL; Subject 10 TCL, Lol p 1 series (Table 3), RGP and Lol p 1 maximal response): 3.7 | Proliferative response, stimulation index (RGP-specific TCL; [15]): 3.3 | Proliferative response, stimulation index (RGP-specific TCL; [16]): 5.7 | Proliferative response, stimulation index (RGP-specific TCL; Subject 18 TCL, Lol p 1 series (Table 3), RGP and Lol p 1 maximal response): 5.4 | Proliferative response, stimulation index (RGP-specific TCL; [13]): 3.0 | Proliferative response, stimulation index (RGP-specific TCL; Subject 22 TCL, Lol p 1 series (Table 3), RGP and Lol p 1 maximal response): 5.7 | Proliferative response, stimulation index (RGP-specific TCL; Subject 23 TCL, Lol p 1 series (Table 3), RGP and Lol p 1 maximal response): 5.2

KPTGAGPKDNGGACGYKDVD (Lolium perenne) [Lol p 1 peptide 28-47]
IFN-γ, proliferation inducing peptides [1, 9]: 23.2 pg/mL | IFN-γ, proliferation inducing peptides [1, 10]: 5.2 pg/mL | Proliferative response, stimulation index (RGP-specific TCL; [14]): 4.1 | Proliferative response, stimulation index (RGP-specific TCL; [15]): 3.5 | Proliferative response, stimulation index (RGP-specific TCL; [12]): 7.6 | Proliferative response, stimulation index (RGP-specific TCL; [13]): 3.0

Lol p 1 peptide 1-20: synthetic 20-mer, amino acids 1-20 of Lol p 1A (SEQ ID NO:1) (IAKVPPGPNITAEYGDKWLD; Lolium perenne)
IL-5, proliferation inducing peptides ([2]; Subject 74 TCL, Lol p 1 peptides): 46.1 pg/mL | Proliferative response, stimulation index (RGP-specific TCL; Subject 24 TCL, Lol p 1 series (Table 3), RGP and Lol p 1 maximal response): 2.6

Lol p 1 peptide 136-155: synthetic 20-mer, amino acids 136-155 of Lol p 1A (SEQ ID NO:1) (RRVKCKYPDGTKPTFHVEKA; Lolium perenne)
IFN-γ, proliferation inducing peptides ([1]; Subject 14 TCL, Lol p 1 peptides): 106.4 pg/mL | Proliferative response, stimulation index (RGP-specific TCL; [14]): 2.5 | Proliferative response, stimulation index (RGP-specific TCL; [16]): 4.4
